# Source: ChEMBL document CHEMBL3885881, “DrugMatrix”
# Species on record: Rattus norvegicus
# Experiment: DrugMatrix - Regimen: Daily Repeat
# Assay type: toxicity, organism-based, Sprague-Dawley
# Set-up: regimen Daily Repeat, gender Male, age 6-8 weeks
# Conditions: in vivo, po, route oral GAVAGE, vehicle 100 % WATER; for ABSOLUTE BASOPHIL / ABSOLUTE EOSINOPHIL / ABSOLUTE LYMPHOCYTE / ABSOLUTE MONOCYTE / ABSOLUTE SEGMENTED NEUTROPHIL / BASOPHIL / EOSINOPHIL / ERYTHROCYTE COUNT / HEMATOCRIT / HEMOGLOBIN / LEUKOCYTE COUNT / LYMPHOCYTE / MEAN CORPUSCULAR HEMOGLOBIN / MEAN CORPUSCULAR HEMOGLOBIN CONCENTRATION / MEAN CORPUSCULAR VOLUME / MONOCYTE / NEUTROPHIL / NUCLEATED RED BLOOD CELLS / PLATELET COUNT: tissue Blood; for ALANINE AMINOTRANSFERASE / ALBUMIN / ALKALINE PHOSPHATASE / ASPARTATE AMINOTRANSFERASE / BLOOD UREA NITROGEN / CARBON DIOXIDE / CHLORIDE / CHOLESTEROL / CREATINE PHOSPHOKINASE / CREATININE / GLUCOSE / LACTATE DEHYDROGENASE / LIPASE / PHOSPHORUS / POTASSIUM / SODIUM / TOTAL BILIRUBIN / TOTAL PROTEIN / URIC ACID: tissue Plasma
# [1] = 0 mg/kg, 72 h, dose level Control, time 3 day
# [2] = 0 mg/kg, 120 h, dose level Control, time 5 day
# [3] = 4.5 mg/kg, 72 h, dose level Low, time 3 day
structure (smiles),measurement,setting,value
NN [HYDRAZINE],ABSOLUTE BASOPHIL,[1],0 CELLS/uL
same,ABSOLUTE EOSINOPHIL,[1],20.17 CELLS/uL
same,ABSOLUTE LYMPHOCYTE,[1],12371.67 CELLS/uL
same,ABSOLUTE MONOCYTE,[1],166 CELLS/uL
same,ABSOLUTE SEGMENTED NEUTROPHIL,[1],1292.17 CELLS/uL
same,BASOPHIL,[1],0%
same,EOSINOPHIL,[1],0.17%
same,ERYTHROCYTE COUNT,[1],5.46 x10E6/uL
same,HEMATOCRIT,[1],34.38%
same,HEMOGLOBIN,[1],13.32 G/DL
same,LEUKOCYTE COUNT,[1],13.85 x10E3/uL
same,LYMPHOCYTE,[1],88.5%
same,MEAN CORPUSCULAR HEMOGLOBIN,[1],24.42 pg
same,MEAN CORPUSCULAR HEMOGLOBIN CONCENTRATION,[1],38.7 G/DL
same,MEAN CORPUSCULAR VOLUME,[1],63.07 fL
same,MONOCYTE,[1],1.17%
same,NEUTROPHIL,[1],10.17%
same,NUCLEATED RED BLOOD CELLS,[1],0.17 /100WBC
same,PLATELET COUNT,[1],1193.5 x10E3/uL
same,ALANINE AMINOTRANSFERASE,[1],54.5 u/L
same,ALBUMIN,[1],4.02 G/DL
same,ALKALINE PHOSPHATASE,[1],346.5 u/L
same,ASPARTATE AMINOTRANSFERASE,[1],103.17 u/L
same,BLOOD UREA NITROGEN,[1],16.5 mg/dL
same,CARBON DIOXIDE,[1],29.83 mmol/L
same,CHLORIDE,[1],99.5 MEQ/L
same,CHOLESTEROL,[1],72.5 mg/dL
same,CREATINE PHOSPHOKINASE,[1],532.5 u/L
same,CREATININE,[1],0.18 mg/dL
same,GLUCOSE,[1],168.5 mg/dL
same,LACTATE DEHYDROGENASE,[1],536.5 u/L
same,LIPASE,[1],11.17 u/L
same,PHOSPHORUS,[1],11.48 mg/dL
same,POTASSIUM,[1],5.95 MEQ/L
same,SODIUM,[1],140.5 MEQ/L
same,TOTAL BILIRUBIN,[1],0.18 mg/dL
same,TOTAL PROTEIN,[1],5.77 G/DL
same,URIC ACID,[1],1.42 mg/dL
same,ABSOLUTE BASOPHIL,[2],0 CELLS/uL
same,ABSOLUTE EOSINOPHIL,[2],22.83 CELLS/uL
same,ABSOLUTE LYMPHOCYTE,[2],12202.83 CELLS/uL
same,ABSOLUTE MONOCYTE,[2],158 CELLS/uL
same,ABSOLUTE SEGMENTED NEUTROPHIL,[2],1283 CELLS/uL
same,BASOPHIL,[2],0%
same,EOSINOPHIL,[2],0.17%
same,ERYTHROCYTE COUNT,[2],5.88 x10E6/uL
same,HEMATOCRIT,[2],36.62%
same,HEMOGLOBIN,[2],14.07 G/DL
same,LEUKOCYTE COUNT,[2],13.67 x10E3/uL
same,LYMPHOCYTE,[2],89.5%
same,MEAN CORPUSCULAR HEMOGLOBIN,[2],23.95 pg
same,MEAN CORPUSCULAR HEMOGLOBIN CONCENTRATION,[2],38.43 G/DL
same,MEAN CORPUSCULAR VOLUME,[2],62.28 fL
same,MONOCYTE,[2],1.17%
same,NEUTROPHIL,[2],9.17%
same,NUCLEATED RED BLOOD CELLS,[2],0.17 /100WBC
same,PLATELET COUNT,[2],1198 x10E3/uL
same,ALANINE AMINOTRANSFERASE,[2],51 u/L
same,ALBUMIN,[2],4.3 G/DL
same,ALKALINE PHOSPHATASE,[2],343 u/L
same,ASPARTATE AMINOTRANSFERASE,[2],89.83 u/L
same,BLOOD UREA NITROGEN,[2],17.67 mg/dL
same,CARBON DIOXIDE,[2],27.17 mmol/L
same,CHLORIDE,[2],98.33 MEQ/L
same,CHOLESTEROL,[2],82.5 mg/dL
same,CREATINE PHOSPHOKINASE,[2],533.33 u/L
same,CREATININE,[2],0.18 mg/dL
same,GLUCOSE,[2],152.67 mg/dL
same,LACTATE DEHYDROGENASE,[2],220.33 u/L
same,LIPASE,[2],11.5 u/L
same,PHOSPHORUS,[2],11.25 mg/dL
same,POTASSIUM,[2],6.29 MEQ/L
same,SODIUM,[2],140.53 MEQ/L
same,TOTAL BILIRUBIN,[2],0.22 mg/dL
same,TOTAL PROTEIN,[2],6.12 G/DL
same,URIC ACID,[2],1.42 mg/dL
same,ABSOLUTE BASOPHIL,[3],0 CELLS/uL
same,ABSOLUTE EOSINOPHIL,[3],52 CELLS/uL
same,ABSOLUTE LYMPHOCYTE,[3],11298 CELLS/uL
same,ABSOLUTE MONOCYTE,[3],113 CELLS/uL
same,ABSOLUTE SEGMENTED NEUTROPHIL,[3],1470.33 CELLS/uL
same,BASOPHIL,[3],0%
same,EOSINOPHIL,[3],0.33%
same,ERYTHROCYTE COUNT,[3],5.57 x10E6/uL
same,HEMATOCRIT,[3],35.73%
same,HEMOGLOBIN,[3],13.97 G/DL
same,LEUKOCYTE COUNT,[3],12.93 x10E3/uL
same,LYMPHOCYTE,[3],87.33%
same,MEAN CORPUSCULAR HEMOGLOBIN,[3],25.1 pg
same,MEAN CORPUSCULAR HEMOGLOBIN CONCENTRATION,[3],39.1 G/DL
same,MEAN CORPUSCULAR VOLUME,[3],64.2 fL
same,MONOCYTE,[3],1%
same,NEUTROPHIL,[3],11.33%
same,NUCLEATED RED BLOOD CELLS,[3],0.33 /100WBC
same,PLATELET COUNT,[3],1229.67 x10E3/uL
same,ALANINE AMINOTRANSFERASE,[3],44.67 u/L
same,ALBUMIN,[3],4.07 G/DL
same,ALKALINE PHOSPHATASE,[3],421.33 u/L
same,ASPARTATE AMINOTRANSFERASE,[3],89.67 u/L
same,BLOOD UREA NITROGEN,[3],13.33 mg/dL
same,CARBON DIOXIDE,[3],30.67 mmol/L
same,CHLORIDE,[3],99 MEQ/L
same,CHOLESTEROL,[3],73.67 mg/dL
same,CREATINE PHOSPHOKINASE,[3],298.33 u/L
same,CREATININE,[3],0.17 mg/dL
same,GLUCOSE,[3],155 mg/dL
same,LACTATE DEHYDROGENASE,[3],178.33 u/L
same,LIPASE,[3],10.67 u/L
same,PHOSPHORUS,[3],11.43 mg/dL
same,POTASSIUM,[3],6.44 MEQ/L
same,SODIUM,[3],142.33 MEQ/L
same,TOTAL BILIRUBIN,[3],0.2 mg/dL
same,TOTAL PROTEIN,[3],6.07 G/DL
same,URIC ACID,[3],1.73 mg/dL
